According to US4551479A, “Compounds with anti-convulsive properties” (Akzo N.V., priority 1983, dated 1985):
Structures can show the parent of a compound that is named as a salt. Where two headings read alike, the source gives them in different places.

How the values were obtained:
[1] = test system: Pentylenetetrazole (PTZ) cramp condition; experiment: PTZ (pentylenetetrazole) test (anti-convulsive properties); format: in vivo; details: ip, read-out: Anti-convulsive properties, PTZ test ED50 i.p.
Text: ^(2) Pentylenetetrazole (i.e. PTZ) directly activates the nerve
endings, leading to a cramp condition.

[2] = Shuttle box (neurotoxicity and sedation); details: ip
[3] = test system: tonic convulsion; experiment: Electroshock test (anti-convulsive properties); format: in vivo; details: ip, read-out: Anti-convulsive properties, Electroshock test ED200 i.p.
Text: ^(1) The ED200 is the dose of the test compound (in mg/kg) which
necessitates a 100% increase of the current intensity to bring about a
tonic convulsion in 50% of the test animals.

[4] = Rotarod (neurotoxicity and sedation); details: ip
[5] = test system: benzodiazepine receptors; experiment: Antagonism of anti-convulsive effect by benzodiazepine antagonist Ro 15-1788; format: in vivo; details: administration of Ro 15-1788

Structure (SMILES)	ED50 [1] [mg/kg]	TD50 [2] [mg/kg]	ED200 [3] [mg/kg]	TD50 [4] [mg/kg]	Effect of benzodiazepine antagonist (Ro 15-1788) on the anti-convulsive effect [5]	ED50 ([1]; pentylenetetrazole) [mg/kg]	ED200 ([3]; dose necessitating a 100% increase of current intensity to bring about tonic convulsion in 50% of test animals) [mg/kg]
CN(C)C1C2C=CCC1c1ccccc1C2 (stereo not drawn)	10	> 46	11	70	–	–	–
CN1C(=O)CN=C(c2ccccc2)c2cc(Cl)ccc21 [diazepam]	0.5	–	14	–	completely counteracted	–	–
CCCC(CCC)C(=O)O [sodium salt of valproic acid]	30	350	180	230	–	–	–
O=C1NC(=O)C(c2ccccc2)(c2ccccc2)N1 [diphenyl hydantoin]	–	100	–	100	–	22	15
